Values joined by “and” are separate entries in the source; they are usually repeats but may differ in a detail not shown here. Identical values can stand only once.
How the values were obtained:
[1] = target: T1, smooth muscle myocyte BK channels (C57BL/6) (Mus musculus, UniProt Q8CAE3); assay: Inside-out patch-clamp of MCA smooth muscle myocytes, wt mice; format: cell-based
T1 construct: endogenous in cells; host or cells: freshly isolated mouse middle cerebral artery smooth muscle cells, inside-out patches
Description: Ionic currents were recorded from excised, inside-out (I/O) patches. […] In all experiments, free [Ca^2+] in solution was adjusted to the desired value by adding the appropriate amount of Ca^2+ from a 1 mM CaCl2 stock. An agar bridge with Cl^- as main anion was used as ground electrode. Solutions were applied onto the cytosolic side of I/O patches using an automated, pressurized system (Octaflow; […] Ionic currents at single channel resolution were recorded using an EPC8 amplifier (HEKA) at 1 kHz. Data were digitized at 5 kHz using a Digidata […] A/D converter and pCLAMP 8.0 (Molecular Devices); n = 5/group. […] Drug-induced NPo changes were determined by comparing baseline NPo (i.e., NPo with the patch/cell perfused with bath solution) to the NPo from the same patch/cell exposed to the agent under study (DMSO/PROG/oxime) dissolved in bath solution.

[2] = system: BK channel, construct not given; assay: Channel activity (NPo) time course, Fig 4E block headed only '10 uM PROG'; format: biochemical
[3] = system: de-endothelialized MCA segments of KCNMB1-/- mice permeabilized with β1 constructs; assay: Cerebral artery diameter in vitro, KCNMB1-/- MCA permeabilized with β1 constructs; set-up: species or system mouse; details: 10 µM; W87F, Y32V or W163I constructs
Excerpt: Eight-12 week-old C57BL/6J and KCNMB1^−/− on C57BL/6 background mice of both sexes were deeply anesthetized with isoflurane via inhalation in a tightly sealed jar. […] For de-endothelialized records, the endothelium was removed by passing an air bubble into the vessel lumen for 90 s[30]. This method has been consistently used by our group and validated using endothelium-dependent versus endothelium-independent vasodilators[16],[26]. Arteries were cannulated as previously described by our group[26],[40]. […] PSS was continuously bubbled with an O2/CO2/N2 (21/5/74%) gas mixture and maintained at 35–37 °C. The artery external wall diameter was measured using the automatic edge-detection function of lonWizard software (lonOptix) via Sanyo VCB-3512T camera (Sanyo Electric Co.). Arteries were first incubated at an intravascular pressure of 10 mm Hg for 10 min. Then intravascular pressure was increased to 60 mmHg and held steady throughout the experiment to induce myogenic tone development and maintenance[19],[30],[51]. […] To determine arterial viability, arterial contractility was probed with a high KCl solution at the end of each experiment. […] Like PSS, the high-KCl solution was continuously bubbled with O2/CO2/N2 (21/5/74%) gas mixture and maintained at 35–37 °C. […]

T1 sequence (Q8CAE3 whole entry): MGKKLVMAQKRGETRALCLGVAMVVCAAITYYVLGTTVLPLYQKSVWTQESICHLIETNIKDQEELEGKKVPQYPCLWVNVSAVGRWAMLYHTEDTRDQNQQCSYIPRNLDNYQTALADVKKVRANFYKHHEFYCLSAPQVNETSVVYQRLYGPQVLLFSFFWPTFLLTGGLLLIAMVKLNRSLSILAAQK
T1 sequence (Q08460 whole entry partner): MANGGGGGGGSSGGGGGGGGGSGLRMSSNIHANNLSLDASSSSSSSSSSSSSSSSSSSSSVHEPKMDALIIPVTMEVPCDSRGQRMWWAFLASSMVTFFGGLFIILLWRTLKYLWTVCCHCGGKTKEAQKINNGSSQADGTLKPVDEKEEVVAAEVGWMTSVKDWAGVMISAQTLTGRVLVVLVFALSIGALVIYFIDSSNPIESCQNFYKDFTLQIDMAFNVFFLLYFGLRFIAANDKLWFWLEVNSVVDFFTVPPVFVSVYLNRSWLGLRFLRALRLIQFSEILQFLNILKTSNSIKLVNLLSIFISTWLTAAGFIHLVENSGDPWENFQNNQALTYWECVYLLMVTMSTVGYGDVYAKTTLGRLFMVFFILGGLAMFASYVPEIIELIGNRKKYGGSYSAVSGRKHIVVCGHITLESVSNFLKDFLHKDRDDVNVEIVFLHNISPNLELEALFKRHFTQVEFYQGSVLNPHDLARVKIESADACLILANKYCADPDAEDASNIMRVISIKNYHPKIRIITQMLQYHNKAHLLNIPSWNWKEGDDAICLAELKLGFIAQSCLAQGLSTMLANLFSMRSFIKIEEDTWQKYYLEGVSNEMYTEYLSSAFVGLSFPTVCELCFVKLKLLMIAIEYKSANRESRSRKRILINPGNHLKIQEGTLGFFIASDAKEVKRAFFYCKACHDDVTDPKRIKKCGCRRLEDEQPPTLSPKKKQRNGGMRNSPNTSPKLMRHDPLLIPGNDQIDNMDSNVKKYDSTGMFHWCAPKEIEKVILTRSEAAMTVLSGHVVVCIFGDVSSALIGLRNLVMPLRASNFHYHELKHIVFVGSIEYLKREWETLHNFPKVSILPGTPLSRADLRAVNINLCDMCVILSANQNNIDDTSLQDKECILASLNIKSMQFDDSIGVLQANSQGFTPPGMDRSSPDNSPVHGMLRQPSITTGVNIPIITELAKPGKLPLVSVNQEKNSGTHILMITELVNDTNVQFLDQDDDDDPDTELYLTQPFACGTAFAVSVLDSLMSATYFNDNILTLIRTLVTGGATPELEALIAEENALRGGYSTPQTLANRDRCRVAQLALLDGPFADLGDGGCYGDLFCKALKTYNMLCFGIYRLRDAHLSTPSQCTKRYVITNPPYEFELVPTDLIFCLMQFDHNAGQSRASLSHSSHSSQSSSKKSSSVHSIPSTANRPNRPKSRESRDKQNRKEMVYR

CC(=O)[C@H]1CC[C@H]2[C@@H]3CCC4=CC(=O)CC[C@]4(C)[C@H]3CC[C@]12C [PROG, Progesterone]
increase of BK channel activity ([1]; 10 µM, I/O patches, 30 μM free Ca2+): ~ 3 fold
normalized NPo, time course Fig 5C ([1]; wt mouse, PROG, time 1 (normalisation reference), columns = cell number): 1
normalized NPo, time course Fig 4E ([2]; time 1 min (normalisation reference)): 1
normalized NPo, time course Fig 4E ([2]; time 2 min): 0.9853 and 1 and 0.9322 and 1.014 and 0.7178
normalized NPo, time course Fig 4E ([2]; time 4 min): 1.015 and 1.069 and 1.029 and 1.047 and 1.067
normalized NPo, time course Fig 4E ([2]; time 5 min): 1.11 and 1.053 and 1.066 and 1.023 and 1.182
normalized NPo, time course Fig 4E ([2]; time 6 min): 1.088 and 1.041 and 1.129 and 1.028 and 1.207
normalized NPo, time course Fig 4E ([2]; time 7 min): 1.162 and 1.118 and 1.064 and 0.8935 and 1.1318
normalized NPo, time course Fig 4E ([2]; time 8 min): 1.096 and 1.061 and 1.045 and 1.148 and 1.63
normalized NPo, time course Fig 4E ([2]; time 10 min): 1.11 and 0.7114 and 1.049 and 1.394 and 1.416
vasoactive response of MCA segments [3]: failed to dilate MCA segments
